{"source": "patent US20070275936A1", "about": "“Formulations and Treatment Methods” (priority 1998, published 2007)", "key": {"[1]": {"test": "Accelerated stability study of BrEA and the example 1 formulations", "assay_type": "physicochemical", "experimental": "An accelerated stability study of 6 months duration is conducted using BrEA and the formulations from example 1. Samples are taken at 1, 2, 3, 4, 5, and 6 month time points and compared with the specifications listed in example 1. Real time stability (25° C., 60% relative humidity) is conducted using BrEA formulation Lots 1 and 2, with sampling time points at 3, 6, 9, 12, 18, 24, and 36 months. […] The results from the stability testing indicate that BrEA is stable for at least 3 months at elevated temperature and humidity in the Lot 1 and 2 formulations."}, "[2]": {"test": "Oral administration of 14C BrEA to rats, preliminary pharmacokinetics", "assay_type": "in vivo", "conditions": "14C BrEA solubilized in different excipients", "experimental": "Nonclinical studies were conducted using an oral and a subcutaneous formulation of BrEA. Rats were orally administered ^14C BrEA solubilized in different excipients to determine the levels of drug in blood and various tissues."}, "[3]": {"test": "Oral bioavailability of BrEA formulations in rats", "assay_type": "in vivo", "experimental": "In vivo experiments were conducted to determine the bioavailability of BrEA via oral administration using different formulations. BrEA was (1) solubilized in soya oil, vitamin E oil, a mixture of vitamin E and cremophore or (2) BrEA was micronized and combined with or without a surfactant. These formulations are described below. The formulations were administered orally to rats and BrEA levels were determined in the blood, liver, spleen, kidney, and the lymph nodes. In the studies using micronized BrEA, the brain was evaluated for drug uptake. Twenty-four hour urine and feces were collected when BrEA was solubilized in vitamin E and soya oils and vitamin E mixed with Cremophore. The data from these studies indicate that BrEA enters into the lymphatics but is eliminated rapidly from the other tissues. The amount of ^14C radioactivity recovered in the feces 24 hours after administration was 78 to 83%.\nBrEA (5 mg in 1.0 mL of soya oil or vitamin E oil) supplemented with ^14C-labelled BrEA was administered intragastrically to rats. Solubilization of BrEA in the vitamin E or soya oil was facilitated with 50 μL ethanol. Animals (3/time point) were assayed at 1.5, 3, 5.5, and 24 hours after administration and the ^14C-radioactivity was measured in the blood, liver, spleen, kidney, lymph nodes and 24 hour feces and urine. […] The uptake is greater with soya oil than vitamin E oil in the blood, liver, and lymph nodes.\nBrEA (5 mg in 1.0 mL of a vitamin E and cremophore) supplemented with ^14C-labelled BrEA was administered intragastrically to rats. Solubilization of BrEA in the vitamin E-cremophore mixture was facilitated by the adding 60 μL ethanol. Animals (4/time point) were sacrificed at 2, 3, 5.5, and 24 hours and ^14C-radioactivity was measured in the blood, liver, spleen, kidney, lymph nodes and 24 hour feces and urine. […] Judging from the values in plasma, liver and lymph nodes, it appears that drug uptake is slower compared with soy oil or vitamin E and its presence in the tissues is more persistent.\nRats, in groups of three males, were orally administered 1.0 mL of 0.9% NaCl containing 10 or 32 mg BrEA micronized with a surfactant, Synperonic PE/F 127 (2.5% wt/wt). Rats were examined at 1.5, 5 and 24 hours after administration. Blood, liver, spleen, kidney, lymph nodes, and brain were assayed for ^14C radioactivity. The levels of BrEA in the blood, in comparison to the experiments with BrEA in Vitamin E oil and soya, were higher, 0.3% at 1.5 hours, and increased after 5 hours to 0.8% and 0.9% of the 10 and 32 mg dose, respectively. Additionally, the values in the lymph nodes were similar to those measured at 1.5 hours and the levels were sustained at 5 hours (5.3 and 5.0%) and 24 hours (3.7 and 3.1%) for the 10 and 32 mg dose, respectively (refer to Table 6).\nIn a repeated dose experiment, rats were intragastrically administered 1.0 mL 0.9% NaCl containing 2 mg BrEA micronized with Synperonic PE/F 127 (2.5% wt/wt) every 6 to 16 hours. Rats (3/time point) were sacrificed at 40, 72, 84, 90 and 96 hours after the first administration. Blood, liver, spleen, kidney and lymph nodes were assayed for ^14C radioactivity.\nRats, in groups of three males, were orally administered 1.0 mL of 0.9% NaCl containing 2, 4 or 10 mg BrEA micronized without a surfactant. Rats were sacrificed at 1.5, 5 and 24 hours after administration and blood, liver, spleen, kidney, lymph nodes and brain were assayed for ^14C radioactivity. The concentration of BrEA micronized without a surfactant in the observed tissues was lower than BrEA plus a surfactant."}, "Plasmodium berghei": {"system": "Plasmodium berghei", "test": "Lewis rat in vivo parasitemia study", "conditions": "Lewis rats"}, "HCV": {"system": "HCV", "test": "HCV level by PCR in HIV/HCV infected patient dosed I.V. with BrEA", "assay_type": "in vivo", "conditions": "predosing 6.5", "experimental": "A patient infected with HIV and HCV was dosed I.V. with BrEA for 3 consecutive days using a formulation that contained 20 mg/mL BrEA in 45% w/v hydroxypropyl-β-cyclodextrin and saline. Four mL of the formulation (80 mg BrEA) was administered to the patient every 4 hours during the 3 day treatment period. The patient's predosing HCV level was 6.5 Log10 as measured by PCR and the HCV level was 6.2 Log10 on the first day of dosing, 5.5 Log10 on the 3rd day of dosing and 4.9 Log10 three days after the last dose was administered. HIV RNA levels as measured by PCR was 5.2 Log10 (predosing), 5.8 Log10 (first day), 5.9 Log10 (third day) and 5.4 Log10 (day 6). The NK cell counts (cells/mm^3) were 28, 41 and 38 at predosing, day 0 and day 3."}, "[4]": {"conditions": "micronized with surfactant, 10 mg dose, 5 hours"}, "[5]": {"conditions": "micronized with surfactant, 32 mg dose, 5 hours"}}, "data": [{"smiles": "C[C@]12CC[C@H](O)C[C@@H]1CC[C@@H]1[C@@H]2CC[C@]2(C)C(=O)[C@H](Br)C[C@@H]12", "note": "[BrEA, 16α-bromo-3β-hydroxy-5α-androstane-17-one]", "values": [{"measurement": "assay potency of BrEA", "setting": "[1]; after 3 months of storage at 40° C. and 75% relative humidity", "result": "at least 95 % of the label value"}, {"measurement": "time BrEA is stable", "setting": "[1]; elevated temperature and humidity, in the Lot 1 and 2 formulations", "result": "at least 3 months"}, {"measurement": "excreted in the feces", "setting": "[2]", "result": "at least 80%"}, {"measurement": "levels of BrEA in the blood", "setting": "[3]; BrEA micronized with Synperonic PE/F 127, 1.5 hours", "result": 0.3, "unit": "%"}, {"measurement": "levels of BrEA in the blood", "setting": "[3]; [4]", "result": 0.8, "unit": "%"}, {"measurement": "values in the lymph nodes", "setting": "[3]; [4]", "result": 5.3, "unit": "%"}, {"measurement": "values in the lymph nodes", "setting": "[3]; micronized with surfactant, 10 mg dose, 24 hours", "result": 3.7, "unit": "%"}, {"measurement": "levels of BrEA in the blood", "setting": "[3]; [5]", "result": 0.9, "unit": "%"}, {"measurement": "values in the lymph nodes", "setting": "[3]; [5]", "result": 5.0, "unit": "%"}, {"measurement": "values in the lymph nodes", "setting": "[3]; micronized with surfactant, 32 mg dose, 24 hours", "result": 3.1, "unit": "%"}, {"measurement": "% RBC parasitemia", "setting": "Plasmodium berghei; Day 4, high dose 60 mg/kg i.v. days 0-3, saline control 16%", "result": 7, "unit": "%"}, {"measurement": "% RBC parasitemia", "setting": "Plasmodium berghei; Day 4, low dose 30 mg/kg i.v. days 0-3, saline control 16%", "result": 9, "unit": "%"}, {"measurement": "% RBC parasitemia", "setting": "Plasmodium berghei; Day 11, high dose 60 mg/kg i.v. days 0-3, saline control 36%", "result": 11, "unit": "%"}, {"measurement": "% RBC parasitemia", "setting": "Plasmodium berghei; Day 11, low dose 30 mg/kg i.v. days 0-3, saline control 36%", "result": 12, "unit": "%"}, {"measurement": "HCV level by PCR", "setting": "HCV; 3rd day of dosing", "result": 5.5, "unit": "Log10"}, {"measurement": "HCV level by PCR", "setting": "HCV; first day of dosing, 80 mg I.V. every 4 hours for 3 days", "result": 6.2, "unit": "Log10"}, {"measurement": "HCV level by PCR", "setting": "HCV; three days after the last dose", "result": 4.9, "unit": "Log10"}]}]}
